Test system: Porcine Smooth Muscle Cell
Assay: Effects of Compounds on Cell Proliferation Using 3H Thymidine Incorporation
Assay type: cell-based
Details: for IC50: serum/growth factor stimulated cells, 24-36 h incubation, read-out: Porcine Smooth Muscle Cell Antiproliferation IC50; for Porcine Smooth Muscle Cell Antiproliferation, percent inhibition: @ 50 μM, control (100%) = maximally stimulated cells
Procedure: Effects of Compounds on Cell Proliferation Using ^3H Thymidine Incorporation
Human and porcine smooth muscle cells were tested in early passage (generally passage 3-7) at sub-confluent conditions. Cultures were grown in 16 mm (24 well) multi-well culture dishes in medium 199 supplemented with 10% fetal bovine serum and 2% antibiotic/antimycotic. At sub-confluence, the cells were placed in a defined serum free medium (AIM-V; Gibco) for 24-48 h prior to initiating the experimental protocol.
Compounds were added to each well at 50 fold dilution (20 μL/well) and the plates were incubated for 24-36 h at 37° C. in 5% CO2. Compounds were initially dissolved in 50% ethanol and serially diluted into media. Compounds were routinely evaluated at concentrations from 1 to 100 μM. As a control, grade II porcine intestinal mucosal heparin (sodium salt) was routinely evaluated in all cell preparations at concentrations from 0.1 to 100 μg/mL.
At the completion of the test procedure, plates were placed on ice, washed three times with ice cold phosphate buffered saline (PBS) and incubated in ice cold 10% trichloroacetic acid (TCA) got 30 min to remove acid soluble proteins. Solution was transferred to scintillation vials containing 0.4 N HCl (500 μL/vial to neutralize NaOH) and each well was rinsed two times with water (500 μL) for a total volume of 2 mL/vial.
Data was obtained, in triplicate, for both control and experimental samples. Control (100%) data was obtained from maximally stimulated cells, as the result of growth factor or serum stimulation. Experimental data was obtained from cells maximally stimulated with growth factor or serum and treated with compound. Data are expressed as an IC50 or percent inhibition in Table I below.

| Structure (SMILES) | IC50 [nM] | Porcine Smooth Muscle Cell Antiproliferation, percent inhibition [% @ 50] |
| --- | --- | --- |
| C=CCCC(=O)Nc1cc(COC2OC(CO)C(OC3OC4COC(c5ccccc5)OC4C(O)C3O)C(O)C2O)ccc1Cl [Example 65, N-{2-Chloro-5-[(4′,6′-O-benzylidene-β-D-maltosyl)-oxy-methyl]-phenyl}-pent-4-enamide] | 17800 |  |
| CC(=O)Nc1cc(CO[C@@H]2O[C@H](COc3ccccc3)[C@@H](O[C@H]3O[C@@H]4COC(c5ccccc5)O[C@H]4[C@H](O)[C@H]3O)[C@H](O)[C@H]2O)ccc1Cl (stereo partly drawn) [Example 60, N-{5-[(4′,6′-O-Benzylidene-6-O-phenyl-β-D-maltosyl)-oxy-methyl]-2-chloro-phenyl}-acetamide] | 38 |  |
| CC(=O)Nc1cc(COC2OC(COC(=O)c3ccccc3)C(OC3OC4COC(c5ccc(Cl)cc5)OC4C(O)C3O)C(O)C2O)ccc1Cl [Example 13, N-{1 5-[(6-O-Benzoyl-4′,6′-O-(4-chloro)-benzylidene-β-D-maltosyl)-oxy-methyl]-2-chloro-phenyl}-acetamide] | 23 |  |
| CC(=O)Nc1cc(COC2OC(CO)C(OC3OC4COC(CCC#N)OC4C(O)C3O)C(O)C2O)ccc1Cl [Example 18, N-{2-Chloro-5[-(4′,6′-O-((1R)-3-cyano-propylidene)-β-D-maltosyloxy)-methyl]-phenyl}-acetamide] |  | 43 |
| CC(NC(=O)OCC1c2ccccc2-c2ccccc21)C(=O)Nc1cc(COC2OC(CO)C(OC3OC4COC(c5ccccc5)OC4C(O)C3O)C(O)C2O)ccc1Cl [Example 75, (1-{5-[(4′,6′-O-Benzylidene-β-D-maltosyl)-oxy-methyl]-2-chloro-phenyl-carbamoyl}ethyl)-carbamic acid 9H-fluoren-9ylmethyl ester] | 4690 |  |
| O=C(Nc1cc(COC2OC(COC(=O)c3cccc(I)c3)C(OC3OC4COC(c5ccccc5)OC4C(O)C3O)C(O)C2O)ccc1Cl)c1ccc(C(=O)c2ccccc2)cc1 [Example 73, 4-Benzoyl-N-{5-[(4′,6′-O-benzylidene-6-O-(3-iodo-benzoyl)-β-D-maltosyl)-oxy-methyl]-2-chloro-phenyl}-benzamide] | 132 |  |
| O=C(Nc1cc(CO[C@@H]2O[C@H](COC(=O)c3ccccc3)[C@@H](O[C@H]3O[C@@H]4CO[C@@H](c5ccccc5)O[C@H]4[C@H](O)[C@H]3O)[C@H](O)[C@H]2O)ccc1Cl)c1cccnc1 [Example 62, (R)-N-[5-[[[6-O-Benzoyl-4-O-[4′,6′-O-(phenylmethylene)-α-D-glucopyranosyl]-β-D-glucopyranosyl]oxy]methyl]-2-chlorophenyl]-3-pyridinecarboxamide] | 23 |  |
| CS(=O)(=O)Nc1cc(COC2OC(CO)C(OC3OC4COC(c5ccccc5)OC4C(O)C3O)C(O)C2O)ccc1Cl [Example 83, N-{5-[(4′,6′-O-Benzylidene-β-D-maltosyl)-oxy-methyl]-2-chloro-phenyl}-methanesulfonamide] |  | 18 |
| CC(=O)Nc1cc(COC2OC(COC(=O)c3ccc(Cl)c([N+](=O)[O-])c3)C(OC3OC4COC(c5ccccc5)OC4C(O)C3O)C(O)C2O)ccc1Cl [Example 38, (R)-N-[2-Chloro-5-[[[6-O-(4-chloro-3-nitrobenzoyl)-4-O-[4,6O-(phenylmethylene)-α-D-glucopyranosyl]-β-D-glucopyranosyl]oxy]methyl]phenyl]acetamide] | 187 |  |
| O=C(Nc1cc(COC2OC(COC(=O)c3ccc(I)cc3)C(OC3OC4COC(c5ccccc5)OC4C(O)C3O)C(O)C2O)ccc1Cl)c1ccc(C(=O)c2ccccc2)cc1 [Example 74, 4-Benzoyl-N-{5-[(4′,6′-O-benzylidene-6-(4-iodo-benzoyl)-oxy-β-D-maltosyl)-oxy-methyl]-2-chloro-phenyl}-benzoic acid amide] | 1220 |  |
| COC(=O)Nc1cc(COC2OC(COC(=O)c3ccccc3)C(OC3OC4COC(c5ccccc5)OC4C(O)C3O)C(O)C2O)ccc1Cl [Example 81, N-{5-[(6-O-Benzoyl-4′,6′-O-benzylidene-β-D-maltosyl)-oxy-methyl]-2-chloro-phenyl}-carbamic acid methyl ester] | 14 |  |
| CC(=O)OC1C(OC2C(COC(=O)c3ccccc3)OC(OCc3ccc(Cl)c([N+](=O)[O-])c3)C(OC(C)=O)C2OC(C)=O)OC2COC(c3ccccc3)OC2C1OC(C)=O [Example 31, (R)-(4-Chloro-3-nitrophenyl)methyl-2,3-di-O-acetyl-6-O-benzoyl-4-O-[2,3-di-O-acetyl-4,6-O-(phenylmethylene)-α-D-glucopyranosyl]-β-D-glucopyranoside] | 380 |  |
| CC(=O)Nc1cc(COC2OC(COC(=O)c3ccc(Cl)c([N+](=O)[O-])c3)C(OC3OC4COC(c5ccccc5)OC4C(O)C3OC(C)=O)C(OC(C)=O)C2OC(C)=O)ccc1Cl [Example 39, N-{5-[(2,2′,3,-Tri-O-Acetyl-6-O-(4-chloro-3-nitrobenzoyl)-4′,6′-O-(benzylidene)-β-D-maltosyl)-oxymethyl]-2-chloro-phenyl)-acetamide] | 2530 |  |
| O=C(OCC1OC(OCc2ccc(Cl)cc2)C(O)C(O)C1OC1OC2COC(c3ccccc3)OC2C(O)C1O)c1ccccc1 [Example 69, Benzoic acid 1-O-(4-chloro)-benzyl-4′,6′-O-benzylidene-6-deoxy-β-D-malto-6-yl ester] | 1530 |  |
| CC(=O)Nc1cc(COC2OC(COS(=O)(=O)c3ccc(C)cc3)C(OC3OC4COC(c5ccccc5)OC4C(O)C3O)C(O)C2O)ccc1Cl [Example 6, N-(5-{[4′,6′-O-Benzylidene-6-O-(4-toluenesulfonyl)-β-D-maltosyl]-oxy-methyl}2-chloro-phenyl)-acetamide] | 133 |  |
| CC(=O)Nc1cc(COC2OC(COC(=O)c3ccccc3)C(OC3OC4COC(C)OC4C(O)C3O)C(O)C2O)ccc1Cl [Example 2, (R)-N-[5-[[[6-O-Benzoyl-4-O-(4,6-O-ethylidene-α-D-glucopyranosyl)-β-D-glucopyranosyl]oxy]methyl]-2-chlorophenyl]acetamide] | 103 |  |
| COC(=O)Nc1cc(COC2OC(CO)C(OC3OC4COC(c5ccccc5)OC4C(O)C3O)C(O)C2O)ccc1Cl [Example 80, N-{5-[(4′,6′-O-Benzylidene-β-D-maltosyl)-oxy-methyl]-2-chloro-phenyl}-carbamic acid methyl ester] | 7570 |  |
| CCOCC[C@@H]1OC[C@H]2O[C@H](O[C@H]3[C@H](O)[C@@H](O)[C@H](OCc4ccc(Cl)c(NC(C)=O)c4)O[C@@H]3CO)[C@H](O)[C@@H](O)[C@@H]2O1 [Example 20, N-{2-Chloro-5-[(4′,6′-O-((1R)-3-ethoxy-propylidene)-β-D-maltosyloxy)-methyl]-phenyl}-acetamide] |  | 48 |
| CC(=O)Nc1cc(COC2OC(COC(=O)c3ccc([N+](=O)[O-])cc3)C(OC3OC4COC(c5ccccc5)OC4C(O)C3O)C(O)C2O)ccc1Cl [Example 41, (R)-N-[2-Chloro-5-[[[6-O-(4-nitrobenzoyl)-4-O-[4,6O-(phenylmethylene)-α-D-glucopyranosyl]-β-D-glucopyranosyl]oxy]methyl]phenyl]acetamide] | 273 |  |
| CC(=O)Nc1cc(COC2OC(CO)C(OC3OC4COC(c5ccncc5)OC4C(O)C3O)C(O)C2O)ccc1Cl [Example 22, N-(2-Chloro-5-{[4′,6′-O-(4-pyridinemethylidene)-β-D-maltosyl]-oxy-methyl}-phenyl)-acetamide] | 5530 |  |
